In patent US6346613B1, “Composition and method for enhancing paracellular transport across cell layers” (Elan Corporation, plc, priority 1997, dated 2002):
Where “and” joins values, the source holds several entries; their conditions need not be identical. Equal values may be shown once.

Assays:
[1] = test system: Caco-2 monolayers; experiment: Transepithelial electrical resistance (TER) of Caco-2 monolayers on snapwells; assay type: cell-based, Human; design: unit not given beside the values; details: Experiment 1, per snapwell, treatment with lipofectamine + oligonucleotide
Experimental: All solutions were warmed to 37° C. before use.

[2] = test system: polarized Caco-2 cells
Experimental: Human intestinal Caco-2 cells were grown using standard techniques well known to those skilled in the art. The cells were seeded onto polycarbonate filters (Costar Snapwells; diameter=12 mm; area=1.13 cm^2; pore size=0.4m) at a density of 0.5×10^6 cm^2. For antisense oligonucleotide studies, 18-25 day old cell monolayers were used which have transepithelial electrical resistance (TER) measurements in the range 200-400 cm^2.
All incubations were at 37° C. in 5% CO2 atmosphere. All solutions were warmed to 37° C. before use. The following procedure was carried out once a day over three days. After reading the TER, the cells were washed once and incubated in a reduced serum medium (RSM; Opti-MEM 1 with GlutaMax 1; Gibco-BRL) for 30 minutes. Meanwhile, the lipofectamine-oligonucleotide complex was allowed to form at room temperature. Lipofectamine (20 μl/snapwell; Gibco BRL CN. 18324-012) was mixed with occludin antisense DNA oligonucleotide, with occludin scrambled oligonucleotide or with water control in RSM.
The lipofectin:oligonucleotide complex was added to the apical surface of the snapwells and the cells were incubated for 2 hours. The apical and basolateral media were then replaced with normal medium (except on day 4). After the 2 hour incubation on day 3, transepithelial flux of ^3H-mannitol was measured.
Caco-2 cells were washed once in buffered Hank's balanced salt solution (bHBSS; Gibco CN.14065-031; supplemented with 0.011M glucose, 15 mM HEPES acid [3.575 g/l; Sigma CN.H3375], 10 mM HEPES base [2.603 g/l; Sigma CN. H1016]) and were incubated 30 minutes. The apical reservoir bHBSS was replaced with 1 ml buffered HBSS containing 1 μCi/ml of the hydrophilic marker ^3H-mannitol (New England Biolabs). […] The samples were added to 4 ml scintillation fluid and radioactivity for each vial counted on a scintillation counter.
Fully differentiated Caco-2 monolayers were grown as in Example 1. […] On day 4, [^3H]-mannitol was applied to the apical domain and flux was determined by measuring the radioactivity (cpm) transferred to the basolateral reservoir over 90 minutes as in Example 3. […]

[3] = Experiment 1, [3H]-mannitol, 90 minutes, Caco-2

Substance	TER ([1]; listed as Lipofectamine + Scrambled Antisense)	TER ([1]; listed as Lipofectamine + Occludin Antisense)	increase in flux relative to no oligonucleotide [2, 3] [fold]	increase in flux relative to occludin scrambled oligonucleotide [2, 3] [fold]	mean increase in [3H]-mannitol flux relative to control scrambled sequence antisense DNA ([2]; Experiment 2 (FIG. 2), 500 μM, Caco-2 monolayers on snapwells) [fold]
5′ GCA AGT CAG GAC GTA GA 3′ (GCAAGTCAGGACGTAGA; chemistry not given here) [occludin scrambled oligonucleotide, reference compound]	1280 and 1700				
5′ AAG AGG CCT GGA TGA CA 3′ (antisense AAGAGGCCTGGATGACA; chemistry not given here) [occludin antisense oligonucleotide]		1260 and 1410	1.6	1.6	2.2
